Measured values as given in patent US8808992B2, “SHOC2 mutations causing noonan-like syndrome with loose anagen hair” (Icahn School of Medicine at Mount Sinai, priority 2009, dated 2014).

Molecular target: T1, NMT (Homo sapiens, UniProt P30419)
T1 construct: host or cells: Cos-1
T1 sequence (P30419 1-496): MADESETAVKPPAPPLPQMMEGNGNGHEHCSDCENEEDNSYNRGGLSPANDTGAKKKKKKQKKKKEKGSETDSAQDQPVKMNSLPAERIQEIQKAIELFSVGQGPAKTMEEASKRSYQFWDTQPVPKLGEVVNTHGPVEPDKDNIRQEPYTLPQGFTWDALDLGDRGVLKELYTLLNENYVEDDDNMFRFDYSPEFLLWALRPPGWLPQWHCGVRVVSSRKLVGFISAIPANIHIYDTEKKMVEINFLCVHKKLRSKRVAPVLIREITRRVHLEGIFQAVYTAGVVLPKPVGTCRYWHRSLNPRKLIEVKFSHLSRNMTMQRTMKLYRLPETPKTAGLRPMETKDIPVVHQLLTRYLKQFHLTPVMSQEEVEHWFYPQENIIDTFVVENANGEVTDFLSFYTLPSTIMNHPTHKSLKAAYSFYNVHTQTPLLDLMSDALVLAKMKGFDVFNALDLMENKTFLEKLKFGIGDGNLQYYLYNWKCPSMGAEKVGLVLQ
Experiment: Membrane targeting of V5-tagged SHOC2^S2G in Cos-1 cells treated with an NMT inhibitor (confocal laser scanning microscopy)
Assay type: cell-based, African green monkey
Description: FIG. 8. Myristoylation is required for membrane targeting of the SHOC2^S2G mutant. […] Confocal laser scanning microscopy was performed using anti-V5 monoclonal antibody, followed by Alexa Fluor-594 goat anti-mouse antibody (red), while actin cytoskeleton was detected by Alexa Fluor 488-phalloidin (green). Nuclei are visualized by DAPI staining (blue). Co-localization areas were detected in yellow. Images represent single optical sections representative of >50 transfected cells observed in each experiment. Bars indicate 20 μm.
N-myristoylation facilitates anchoring of proteins to intracellular membranes. To explore whether it conferred membrane targeting to mutant SHOC2, the subcellular localization of tagged SHOC2 proteins was analyzed in Cos-1 cells (FIG. 2b and FIG. 6). Confocal laser microscopy analysis documented that SHOC2^wt was uniformly distributed in the cytoplasm and nucleus in starved cells but was restricted to the nucleus following EGF stimulation, implying an unexpected role for this protein in signal transduction. […]
In silico analysis of protein N-myristoylation was performed using Myristoylator (http://www.expasy.org/tools/myristoylator/), TermiNator (http://www.isv.cnrs-gif.fr/terminator3/index.html) and NMT (http.//mendel.imp.ac.at/sat/myristate/index.html) software. […] N-myristoylation was evaluated by [^3H]myristic acid (30 μCi/ml) incorporation as described elsewhere^26. […]

- membrane targeting of V5-tagged SHOC2^S2G (Cos-1 cells treated with 200 μM (middle) and 300 μM (bottom), compared with untreated cells): progressively lost
- SHOC2^S2G's membrane localization (Cos-1 cells, treatment at varying doses (FIG. 8)): reduced or abolished
SMILES: CCCCCCCCCCCCC(O)C(=O)O (centres unmarked) [2-hydroxymyristic acid]
